Data on ten compounds can be found in PMC3620317, “Optimisation of Embryonic and Larval ECG Measurement in Zebrafish for Quantifying the Effect of QT Prolonging Drugs” (PLoS ONE, 2013).

In series [1] the test system is 3 dpf zebrafish larvae. Description: ECG recording in zebrafish larvae before and after drug treatment. Particulars: for Effect on QTc interval (in words): 3 dpf zebrafish larvae, over the tested concentrations; for AV block: at particular concentrations and exposure times; for Mean QTc interval duration, After / Mean interval duration QT / Mean interval duration QTc / Mean interval duration RR: 3 dpf; for Effect on heart rate (ƒH): immobilising agents, MESAB at very high concentrations, tubocurarine at any tested concentration; for Mean interval duration QT / Mean interval duration QTc / Mean interval duration RR: n = 10. The procedure: For all experiments, except the anaesthetic and tubocurarine experiments, fish larvae were anaesthetised in ethyl-3 aminobenzoate methanesulfonate (0.3 mg/ml; Sigma) for 5–10 mins before transfer into 3 ml of embryo medium in the plate used for subsequent measurements. Once anaesthetised, one embryo was then transferred to the ECG recording plate (mini Petri dish with an unscented paraffin wax surface, containing 3 ml of fresh E3 embryo medium without MESAB). The embryo was positioned ventrally within a groove in the wax, and the tip (2 µm diameter) of a filled pre-pulled borosilicate glass micropipette (P84, World Precision Instruments) was positioned on the skin surface between the ventricle and atrium (no penetration) using micromanipulators (Narishige) and Inchworm step motors (Burleigh), viewed under a Nikon microscope (SMZ600). The micropipettes were filled with MicroFil (P85, World Precision Instruments) in 3 M potassium acetate solution (Sigma) and coloured with methylene blue (Sigma) to easier visualise the tips during recordings. A chloridised silver wire which carried the electrical signal to the amplifier was inserted into the micropipettes and a second reference electrode placed in the surrounding medium during recordings. The differential amplifier (NPI electronics) used for recording was operated in DC mode with the high pass filter set at 0.1 Hz. The raw ECG signals were digitised (PowerLab; ADI Instruments) and viewed using LabChart 7 (ADI Instruments).
Non-invasive recordings were taken by applying slight pressure over the surface of the heart using the tip of a glass capillary. Invasive recordings were taken by increasing the speed and also the distance moved by the step motor to puncture the skin over the heart. All of the recording equipment was housed on an air table within a grounded Faraday cage to minimise background noise. Experiments were performed at room temperature (21°C) except when otherwise stated. Temperature was controlled using a sensor placed in the recording plate and a homemade heating element (Cryocon 24 temperature controller). For optimisation experiments, recordings were taken for 5 mins. For the temperature experiments, embryos were initially acclimatised to each temperature for 30 mins before taking a recording of 5 mins. For drug treatments, ECG recordings were taken continuously after drug addition. A 5 mins segment before drug addition and a 15 minute segment where QT prolongation was first apparent by visual observation were selected for analysis.
All drug stocks were made using either DMSO or distilled water depending on solubility, then diluted using E3 embryo medium to make up the final concentrations for recording purposes with DMSO levels at 1%. ECG recordings were taken for 5 mins in 3 ml of embryo medium before addition of drug directly to the recording plate (1 ml) to produce the desired concentration by undergoing a 1 in 4 dilution.
Analysis of the digitised ECG signal was carried out using LabChart and the mean intervals for the ECG parameters R-R, QRS, QT and QTc were calculated. For drug treatments the percentage change in the corrected QT interval (QTc) before and after drug administration was compared. One way ANOVA analysis was then performed to determine statistical significance between differences observed.
Z factor scores were also calculated to determine the robustness of the ECG system as a screening tool, using the mean QTc percentage change before and after drug treatment for each individual fish. The values before drug treatment were standardised. The Z factor score was calculated using the following equation: Z = 1– [3×(σp+σn)/(µp - µn)],
where µp and σp represent mean and SD after treatment, while µn and σn represent mean and SD before treatment. Z factor scores fall into the following range: 1 = ideal, 0.5–1 = excellent, 0–0.5 = marginal, <0 = poor.

The subject of series [2] is 3 dpf zebrafish. Description: Exclusion of motion artefact: myocardial contractility under excitation-contraction uncouplers. The class given is in vivo. Particulars: for Effect on contraction of cardiomyocytes / myocardial contractility: drug added to embryo holding chamber. The procedure:
Firstly, recordings were performed with and without cromakalim and secondly, comparing invasive (intracardial) and non-invasive surface recordings. Cromakalim was added to the embryo holding chamber and ECG signals were recorded before and after drug exposure (QTc values shown in Table S1). […] Therefore, as an independent approach we compared ECG signals from invasive and non-invasive electrode positioning. There was minimal difference between recordings taken invasively and non-invasively (n = 5; Fig. 2B, Table S2).

On the set-up of series [3]: method as in earlier work. Particulars: zebrafish larvae ref 56; cited from earlier work.
[4] abbreviates: tubocurarine 100 μM, continuous exposure.
Setting [5] is: tubocurarine 400 μM, continuous exposure.
Setting [6] is: MESAB 0.1 mg/ml, prior anaesthesia 5–10 minutes.
[7] abbreviates: MESAB 0.3 mg/ml, prior anaesthesia 5–10 minutes.
The mark [8] stands for this setting: MESAB 0.5 mg/ml, prior anaesthesia 5–10 minutes.
Where [9] appears, read: MESAB 1 mg/ml, prior anaesthesia 5–10 minutes.

Several values for one entry are separate records, joined by “and”; a condition that tells them apart may be missing. Identical values can stand only once.

For the compound `O=C(CCCN1CCC(O)(c2ccc(Cl)cc2)CC1)c1ccc(F)cc1` [haloperidol], the “Effect on QTc interval (in words)” value in series [1] is listed as “apparent QT prolongation, which was found to be similar at various concentrations”. The AV block entry in series [1] (3 dpf larvae) is “induced an atrioventricular (AV) block and 2∶1 AV block”. In addition, the “Mean QTc interval duration, After” value in series [1] (haloperidol 50 µM, n = 8, before drug 0.499 s) came out at 0.586 s; in series [1] (haloperidol 100 µM, n = 8, before drug 0.511 s), 0.603 s; in series [1] (haloperidol 200 µM, n = 8, before drug 0.504 s) it was 0.593 s; in series [1] (haloperidol 300 µM, n = 8, before drug 0.480 s) it was 0.576 s.
For the compound `Cc1ccc2c(c1)C(=O)C1(O)CCN(c3ccccc3)C1=N2` (stereo not drawn) [blebbistatin], in series [2], the “Adverse effects on ECG and embryo survival” value was “adverse effects on the ECG and embryo survival”; the “Effect on contraction of cardiomyocytes / myocardial contractility” value was “completely remove myocardial contractility”.
Turning to penicillin, the “Effect on QTc interval (in words)” value in series [1] is on record as “no effect on the QTc interval”. Also, the “Mean QTc interval duration, After” value amounted to 0.495 s in series [1] (penicillin 0.1 µM, negative control, n = 8, before drug 0.497 s); 0.492 s in series [1] (penicillin 0.3 µM, negative control, n = 8, before drug 0.487 s); 0.500 s in series [1] (penicillin 10 µM, negative control, n = 8, before drug 0.490 s); 0.503 s in series [1] (penicillin 30 µM, negative control, n = 8, before drug 0.494 s); 0.488 s in series [1] (penicillin 50 µM, negative control, n = 8, before drug 0.489 s); 0.508 s in series [1] (penicillin 100 µM, negative control, n = 8, before drug 0.506 s). Moreover, the “Mean QTc interval duration, After” value in series [1] (penicillin 200 µM, negative control, n = 8, before drug 0.478 s) amounted to 0.483 s; in series [1] (penicillin 300 µM, negative control, n = 8, before drug 0.457 s), 0.454 s; in series [1] (penicillin 400 µM, negative control, n = 8, before drug 0.514 s), 0.507 s; in series [1] (penicillin 1000 µM, negative control, n = 8, before drug 0.511 s) it was 0.501 s.
`CC(=O)C(C)=NO` [BDM, 2,3-butanedione-monoxime]: in series [2], the “Adverse effects on ECG and embryo survival” value is “adverse effects on the ECG and embryo survival”; the “Effect on contraction of cardiomyocytes / myocardial contractility” value is “completely remove myocardial contractility”.
With `COc1ccc(CCN(C)CCCC(C#N)(c2ccc(OC)c(OC)c2)C(C)C)cc1OC` (stereo not drawn) [verapamil], in series [1], the “Effect on QTc interval (in words)” value is recorded as “increased the QTc interval”. Besides, the “Mean QTc interval duration, After” value turned out to be 0.486 s in series [1] (verapamil 10 µM, n = 8, before drug 0.482 s); 0.484 s in series [1] (verapamil 25 µM, n = 8, before drug 0.478 s); 0.529 s in series [1] (verapamil 50 µM, n = 8, before drug 0.471 s); 0.578 s in series [1] (verapamil 100 µM, n = 8, before drug 0.473 s); 0.591 s in series [1] (verapamil 200 µM, n = 8, before drug 0.484 s); 0.622 s in series [1] (verapamil 300 µM, n = 8, before drug 0.477 s). The “Mean QTc interval duration, After” value in series [1] (verapamil 400 µM, n = 8, before drug 0.481 s) stood at 0.609 s; in series [1] (verapamil 1000 µM, n = 8, before drug 0.466 s), 0.616 s.
In the case of `COc1cc2c3cc1Oc1cc(ccc1O)C[C@@H]1c4c(cc(OC)c(O)c4Oc4ccc(cc4)C[C@@H]3N(C)CC2)CC[N+]1(C)C` [tubocurarine], the “Effect on heart rate (ƒH)” value in series [1] is given as “did not affect ƒH at any of the tested concentrations”. For the same compound, in series [1] (setting [4]), the “Mean interval duration QT” value is reported as 0.3263 s, the “Mean interval duration QTc” value was determined as 0.4733 s and the “Mean interval duration RR” value was determined as 0.4755 s. In series [1] (setting [5]), the “Mean interval duration QT” value was 0.3306 s, the “Mean interval duration QTc” value was determined as 0.4755 s and the “Mean interval duration RR” value is reported as 0.4863 s.
`CC(C)(C)c1ccc(C(O)CCCN2CCC(C(O)(c3ccccc3)c3ccccc3)CC2)cc1` (stereo not drawn) [terfenadine]: in series [3], the “Metabolism in zebrafish larvae” value is “almost completely metabolised to azacyclone and terfenadine alcohol”. For the same compound, the “Arrhythmia, ECG screenshot” value in series [1] (50 µM terfenadine, after 40 minutes of treatment, 3 dpf larva) was “arrhythmic phenotype with the presence of ectopic beats”. The AV block in series [1] (3 dpf larvae) is 2∶1 AV block; in series [1] (3 dpf larvae, listed as Terfenadine) it was “induced an atrioventricular (AV) block”. Moreover, in series [1] (time and concentration-dependent, 3 dpf larvae), the Arrhythmia development entry was “development of an arrhythmia”.
For `CCOC(=O)c1cccc(N)c1.CS(=O)(=O)O` [MESAB, ethyl-3 aminobenzoate methanesulfonate], the “Mean interval duration QT” value in series [1] (setting [6]) stood at 0.3428 s; in series [1] (setting [7]) it was 0.3614 s; in series [1] (setting [8]), 0.3515 s; in series [1] (setting [9]), 0.3656 s. Besides, the “Mean interval duration QTc” value in series [1] (setting [6]) came to 0.4944 s; in series [1] (setting [7]) it was 0.5049 s; in series [1] (setting [8]), 0.5012 s; in series [1] (setting [9]), 0.5133 s. Besides, the “Mean interval duration RR” value in series [1] (setting [6]) stood at 0.4798 s; in series [1] (setting [7]), 0.5123 s; in series [1] (setting [8]) it was 0.4917 s; in series [1] (setting [9]), 0.5517 s. Moreover, the “Effect on R-R interval” value in series [1] (MESAB at high concentrations (1 mg/ml), P<0.05) is recorded as “increase of the R-R interval”. In series [1], the “Effect on heart rate (ƒH)” value is given as “induced bradycardia”.
`CC1(C)Oc2ccc(C#N)cc2C(N2CCCC2=O)C1O` (stereo not drawn) [cromakalim]: the “Effect on QTc interval (in words)” value in series [1] is “no perturbation to the QTc interval”. Also, the “Mean QTc interval duration, After” value in series [1] (cromakalim 10 µM, n = 5, before drug 0.458 s) worked out at 0.461 s; in series [1] (cromakalim 25 µM, n = 5, before drug 0.459 s) it was 0.460 s; in series [1] (cromakalim 50 µM, n = 5, before drug 0.469 s), 0.464 s; in series [1] (cromakalim 100 µM, n = 5, before drug 0.453 s), 0.449 s; in series [1] (cromakalim 200 µM, n = 5, before drug 0.476 s) it was 0.476 s; in series [1] (cromakalim 300 µM, n = 5, before drug 0.475 s), 0.472 s. The “Mean QTc interval duration, After” value in series [1] (cromakalim 400 µM, n = 5, before drug 0.468 s) turned out to be 0.474 s. Moreover, the “Effect on contraction of cardiomyocytes / myocardial contractility” value in series [2] was “did not reduce contraction of cardiomyocytes”.
Regarding `O=c1[nH]c2ccccc2n1C1CCN(CCCC(c2ccc(F)cc2)c2ccc(F)cc2)CC1` [pimozide], the “Effect on QTc interval (in words)” value in series [1] was “statistically significant increase in the corrected QT interval”. For the same compound, the AV block entry in series [1] (3 dpf larvae) is reported as “induced an atrioventricular (AV) block”. The “Mean QTc interval duration, After” value in series [1] (pimozide 50 µM, n = 8, before drug 0.491 s) amounted to 0.629 s; in series [1] (pimozide 100 µM, n = 8, before drug 0.470 s), 0.610 s.
